Calls of active or inactive are those of the source. The rule behind the calls is not given here.
How the values were obtained:
A498 = experiment: Growth inhibition of human A498 cells after 48 hrs by sulforhodamine B assay; format: functional; conditions: A498, 48 h
KM12 = experiment: Growth inhibition of human KM12 cells at 1 uM after 48 hrs by sulforhodamine B assay; format: functional, cell-based
U-251 = experiment: Growth inhibition of human U251 cells at 1 uM after 48 hrs by sulforhodamine B assay; format: functional, cell-based
Malme-3M [1] = experiment: Growth inhibition of human MALME-3M cells after 48 hrs by sulforhodamine B assay; format: functional
COLO 205 = experiment: Growth inhibition of human COLO205 cells after 48 hrs by sulforhodamine B assay; format: functional; conditions: COLO 205, 48 h
Malme-3M [2] = experiment: Growth inhibition of human MALME-3M cells at 1 uM after 48 hrs by sulforhodamine B assay; format: functional, cell-based
T47D = experiment: Growth inhibition of human T47D cells after 48 hrs by sulforhodamine B assay; format: functional
SK-MEL-28 = experiment: Growth inhibition of human SK-MEL-28 cells at 1 uM after 48 hrs by sulforhodamine B assay; format: functional, cell-based
OVCAR-8 = experiment: Growth inhibition of human OVCAR8 cells at 1 uM after 48 hrs by sulforhodamine B assay; format: functional, cell-based
A549 = experiment: Growth inhibition of human A549 cells at 1 uM after 48 hrs by sulforhodamine B assay; format: functional, cell-based
IGROV-1 [3] = experiment: Growth inhibition of human IGROV1 cells after 48 hrs by sulforhodamine B assay; format: functional; conditions: IGROV-1, 48 h
HCT-116 = experiment: Growth inhibition of human HCT116 cells at 1 uM after 48 hrs by sulforhodamine B assay; format: functional, cell-based
OVCAR-3 = experiment: Growth inhibition of human OVCAR-3 cells at 1 uM after 48 hrs by sulforhodamine B assay; format: functional, cell-based
RXF 393 [4] = experiment: Growth inhibition of human RXF393 cells at 1 uM after 48 hrs by sulforhodamine B assay; format: functional, cell-based
MDA-MB-231 = experiment: Growth inhibition of human MDA-MB-231 cells after 48 hrs by sulforhodamine B assay; format: functional; conditions: MDA-MB-231, 48 h
BT-549 = experiment: Growth inhibition of human BT549 cells after 48 hrs by sulforhodamine B assay; format: functional; conditions: BT-549, 48 h
SK-MEL-2 = experiment: Growth inhibition of human SK-MEL-2 cells at 1 uM after 48 hrs by sulforhodamine B assay; format: functional, cell-based
SF-295 = experiment: Growth inhibition of human SF295 cells at 1 uM after 48 hrs by sulforhodamine B assay; format: functional, cell-based
HL-60 = experiment: Growth inhibition of human HL-60(TB) cells at 1 uM after 48 hrs by sulforhodamine B assay; format: functional, cell-based
HOP-92 = experiment: Growth inhibition of human HOP92 cells at 1 uM after 48 hrs by sulforhodamine B assay; format: functional, cell-based
NCI-H23 = experiment: Growth inhibition of human NCI-H23 cells after 48 hrs by sulforhodamine B assay; format: functional; conditions: NCI-H23, 48 h
SF-539 = experiment: Growth inhibition of human SF539 cells at 1 uM after 48 hrs by sulforhodamine B assay; format: functional, cell-based
SK-MEL-5 = experiment: Growth inhibition of human SK-MEL-5 cells at 1 uM after 48 hrs by sulforhodamine B assay; format: functional, cell-based
SR = experiment: Growth inhibition of human SR cells after 48 hrs by sulforhodamine B assay; format: functional
HCT-15 = experiment: Growth inhibition of human HCT15 cells at 1 uM after 48 hrs by sulforhodamine B assay; format: functional, cell-based
UO-31 [5] = experiment: Growth inhibition of human UO31 cells after 48 hrs by sulforhodamine B assay; format: functional; conditions: UO-31, 48 h
SF530 = experiment: Growth inhibition of human SF530 cells at 1 uM after 48 hrs by sulforhodamine B assay; format: functional, cell-based
RPMI-8226 = experiment: Growth inhibition of human RPMI8226 cells at 1 uM after 48 hrs by sulforhodamine B assay; format: functional, cell-based
NCI-H460 = experiment: Growth inhibition of human NCI-H460 cells after 48 hrs by sulforhodamine B assay; format: functional; conditions: NCI-H460, 48 h
IGROV-1 [6] = experiment: Growth inhibition of human IGROV1 cells at 1 uM after 48 hrs by sulforhodamine B assay; format: functional, cell-based
HT-29 [7] = experiment: Growth inhibition of human HT-29 cells after 48 hrs by sulforhodamine B assay; format: functional; conditions: HT-29, 48 h
K562 = experiment: Growth inhibition of human K562 cells at 1 uM after 48 hrs by sulforhodamine B assay; format: functional, cell-based
SN12C = experiment: Growth inhibition of human SN12C cells at 1 uM after 48 hrs by sulforhodamine B assay; format: functional, cell-based
HT-29 [8] = experiment: Growth inhibition of human HT-29 cells at 1 uM after 48 hrs by sulforhodamine B assay; format: functional, cell-based
LOX IMVI = experiment: Growth inhibition of human LOXIMVI cells at 1 uM after 48 hrs by sulforhodamine B assay; format: functional, cell-based
RXF 393 [9] = experiment: Growth inhibition of human RXF393 cells after 48 hrs by sulforhodamine B assay; format: functional; conditions: RXF 393, 48 h
NCI-H322M = experiment: Growth inhibition of human […] cells at 1 uM after 48 hrs by sulforhodamine B assay; format: functional, cell-based
OVCAR-4 [10] = experiment: Growth inhibition of human OVCAR4 cells at 1 uM after 48 hrs by sulforhodamine B assay; format: functional, cell-based
ACHN = experiment: Growth inhibition of human ACHN cells at 1 uM after 48 hrs by sulforhodamine B assay; format: functional, cell-based
UO-31 [11] = experiment: Growth inhibition of human UO31 cells at 1 uM after 48 hrs by sulforhodamine B assay; format: functional, cell-based
UACC-257 = experiment: Growth inhibition of human UACC257 cells after 48 hrs by sulforhodamine B assay; format: functional; conditions: UACC-257, 48 h
NCI-H226 = experiment: Growth inhibition of human NCI-H226 cells at 1 uM after 48 hrs by sulforhodamine B assay; format: functional, cell-based
MDA-MB-435 = experiment: Growth inhibition of human MDA-MB-435 cells at 1 uM after 48 hrs by sulforhodamine B assay; format: functional, cell-based
EKVX = experiment: Growth inhibition of human EKVX cells after 48 hrs by sulforhodamine B assay; format: functional
MOLT-4 = experiment: Growth inhibition of human MOLT4 cells at 1 uM after 48 hrs by sulforhodamine B assay; format: functional, cell-based
OVCAR-4 [12] = experiment: Growth inhibition of human OVCAR4 cells after 48 hrs by sulforhodamine B assay; format: functional; conditions: OVCAR-4, 48 h
MCF7 = experiment: Growth inhibition of human MCF7 cells after 48 hrs by sulforhodamine B assay; format: functional; conditions: MCF7, 48 h
[13] = read-out: LC50 (the source's name)

## Nc1nc(N)c2c(n1)NC(c1ccc(Cl)cc1)C1CCc3ccccc3C1=N2 (centres undefined)
A498
  GI50: 5.34 µM
  LC50: 44.9 µM
KM12
  growth inhibition (GI): inactive
U-251
  growth inhibition (GI): inactive
Malme-3M [1]
  GI50: 8.48 µM
  LC50: 54 µM
COLO 205
  GI50: 2.78 µM
  LC50 (50% lethal concentration): 30.1 µM
Malme-3M [2]
  growth inhibition (GI): inactive
T47D
  GI50: 4.09 µM
T47D; [13]
  CC50: 59.8 µM
SK-MEL-28
  growth inhibition (GI): inactive
OVCAR-8
  growth inhibition (GI): inactive
A549
  growth inhibition (GI): inactive
IGROV-1 [3]
  GI50: 6.16 µM
  LC50 (concentration killing 50% of cells): 49.9 µM
HCT-116
  growth inhibition (GI): inactive
OVCAR-3
  growth inhibition (GI): inactive
RXF 393 [4]
  growth inhibition (GI): inactive
MDA-MB-231
  GI50: 9.73 µM
MDA-MB-231; [13]
  CC50: 47.9 µM
BT-549
  GI50: 9.01 µM
BT-549; [13]
  CC50: 52.6 µM
SK-MEL-2
  growth inhibition (GI): inactive
SF-295
  growth inhibition (GI): inactive
HL-60
  growth inhibition (GI): inactive
HOP-92
  growth inhibition (GI): inactive
NCI-H23
  GI50: 4.88 µM
  LC50: 44.7 µM
SF-539
  growth inhibition (GI): inactive
SK-MEL-5
  growth inhibition (GI): inactive
SR
  GI50: 1.73 µM
  LC50: 36.3 µM
HCT-15
  growth inhibition (GI): inactive
UO-31 [5]
  GI50: 3.63 µM
  LC50: 46.2 µM
SF530
  growth inhibition (GI): inactive
RPMI-8226
  growth inhibition (GI): inactive
NCI-H460
  GI50: 3.77 µM
  LC50: 39.1 µM
IGROV-1 [6]
  growth inhibition (GI): inactive
HT-29 [7]
  GI50: 4.31 µM
HT-29 [7]; [13]
  CC50: 52.6 µM
K562
  growth inhibition (GI): inactive
SN12C
  growth inhibition (GI): inactive
HT-29 [8]
  growth inhibition (GI): inactive
LOX IMVI
  growth inhibition (GI): inactive
RXF 393 [9]
  GI50: 4.68 µM
  LC50 (50% lethal concentration): 54.4 µM
NCI-H322M
  growth inhibition (GI): inactive
OVCAR-4 [10]
  growth inhibition (GI): inactive
ACHN
  growth inhibition (GI): inactive
UO-31 [11]
  growth inhibition (GI): inactive
UACC-257
  GI50: 7.07 µM
UACC-257; [13]
  CC50: 44.9 µM
NCI-H226
  growth inhibition (GI): inactive
MDA-MB-435
  growth inhibition (GI): inactive
EKVX
  GI50: 3.62 µM
  LC50: 96.5 µM
MOLT-4
  growth inhibition (GI): inactive
OVCAR-4 [12]
  GI50: 6.45 µM
  LC50 (50% lethal concentration): 50.9 µM
MCF7
  GI50: 2.41 µM
  LC50: 33.7 µM

Source: ChEMBL document CHEMBL1177848, “Synthesis of novel 6,6a,7,8-tetrahydro-5H-naphtho[1,2-e]pyrimido[4,5-b][1,4]diazepines under microwave irradiation as potential anti-tumor agents” (2010)
